Where no end group is shown, it is not given here. [ ]: non-standard residue; d: D form. TGN = not defined here
Tests used:
CTNNB1 [1] = assay: In vitro DMD assay: mRNA silencing enhancement by peptide conjugates after siRNA-IV treatment; format: cell-based; settings: primary mouse hepatocytes, siRNA-IV 125 nM baseline
How it was run: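 Primary mouse hepatocytes were pretreated 1 h with siRNA-IV at 125 nM, then exposed ~16 h to peptide conjugates across a dose range, washed and held 24 h more. Target mRNA by RT-qPCR, normalized to PPIB (dddCt), expressed as enhancement over siRNA-IV alone relative to untreated cells.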

CTNNB1 [2] = assay: In vivo evaluation in mice: liver mRNA knockdown measurement; settings: mice
Protocol: Female CD-1 mice (Charles River) were injected in accordance with either a sequential dosing paradigm or a co-dosing paradigm. In the sequential dosing paradigm, the targeted siRNA (SCE) is dosed at t=0 and the targeted peptide is separately dosed up to 2 hr before the SCE (−2 hr) or up to 24 hr after the SCE (+24 hr). In the co-dosing paradigm, the SCE and peptides are co-formulated and dosed together in the same formulation as a single injection at t=0. The mice were dosed either by intravenous (i.v.) or subcutaneous (s.c.) injection of SCE and peptide. For the i.v. doses, the compounds were injected into the tail vein of the mice. For the s.c. doses, the compounds were injected in the subcutaneous space on the back of the mouse between the shoulder blades. At the indicated harvest times (measured from t=0 when the siRNA was dosed, regardless of when the peptide was dosed), the animals were sacrificed and 3 mm liver punches were collected, preserved in RNAlater (Ambion), and stored at 4° C. Separate 5 mm liver punches were collected, placed in 96-well plates, frozen on dry ice, and stored at −80° C. until use.
The 3 mm liver punches were removed from RNAlater and homogenized in Trizol (Invitrogen) using a bead mill tissue lyser (Qiagen); disruption was performed for two 5-minute cycles at 30 Hz. RNA extraction was performed using 1-bromo-2-chloropropane (Acros Organics) and total RNA was isolated from the aqueous phase using the MagMax RNA isolation method (Ambion). […] TaqMan qPCR analysis was performed with an ABI 7900 Real-Time PCR System using TaqMan Fast Advanced Master Mix (Applied Biosystems). All TaqMan probes and primers for CTNNB1 and PPIB (housekeeping gene) were purchased from Applied Biosystems as pre-validated gene expression assays. Results are calculated by the comparative Ct method, where the difference between the CTNNB1 Ct value and the PPIB Ct value (ΔCt) is calculated and then further normalized relative to the PBS control by taking a second difference (ΔΔCt), as described previously (1).

[3] = TGN-L-siRNA-III 0.25 mg/kg IV, peptide 10 mg/kg IV 15 min after siRNA
[4] = TGN-L-siRNA-II 0.25 mg/kg IV, peptide 3 mg/kg IV 15 min after siRNA

| Substance | In vitro dddCt (vs. baseline SCE dose) (CTNNB1 [1]; Targeted peptide dose 15625 nM) | In vivo mRNA knockdown (CTNNB1 [2]; [3]) | In vitro dddCt (vs. baseline SCE dose) (CTNNB1 [1]; Targeted peptide dose 125 nM) | In vitro dddCt (vs. baseline SCE dose) (CTNNB1 [1]; Targeted peptide dose 625 nM) | In vitro dddCt (vs. baseline SCE dose) (CTNNB1 [1]; Targeted peptide dose 3125 nM) | other results |
| --- | --- | --- | --- | --- | --- | --- |
| TGN-S-S-SEQ ID NO: 1631 (D) ([dC]G[dL][dF]G[dH][dI][dH][dH][dL][dI][dH][dH]G[dL][dH][dN][dL][dI][dD][dW][dW][dN]G; not fully specified (residue 1); also: TGN attached via disulfide; listed as Homo sapiens) | −2.11 | 17% | – | – | – | – |
| TGN-S-S-SEQ ID NO: 1632 (D) ([dC]G[dL][dF]G[dE][dI][dH][dH][dL][dI][dH][dH]G[dL][dH][dN][dL][dI][dD][dW][dW][dN]G; not fully specified (residue 1); also: TGN attached via disulfide; listed as Homo sapiens) | −0.47 | 36% | −0.29 | −0.44 | −0.19 | – |
| TGN-S-S-SEQ ID NO: 1633 (D) ([dC]G[dL][dF]G[dE][dI][dH][dH][dL][dI][dH][dH]G[dL][dE][dN][dL][dI][dD][dW][dW][dN]G; not fully specified (residue 1); also: TGN attached via disulfide; listed as Homo sapiens) | – | 55% | – | −0.2 | −0.2 | In vitro dddCt (vs. baseline SCE dose) (CTNNB1 [1]; Targeted peptide dose 25 nM): −0.33 |
| TGN-S-S-SEQ ID NO: 1634 (D) ([dC]G[dL][dF]G[dE][dI][dH][dE][dL][dI][dH][dH]G[dL][dE][dN][dL][dI][dD][dW][dW][dN]G; not fully specified (residue 1); also: TGN attached via disulfide; listed as Homo sapiens) | −0.74 | 17% | −0.3 | −0.41 | −0.3 | – |
| TGN-S-S-SEQ ID NO: 1651 (D) ([dC]G[dL][dF][dE][dE][dI][dA][dE][dL][dI][dE][dE]G[dL][dE][dN][dL][dI][dD][dW]G[dN]G; not fully specified (residue 1); also: TGN attached via disulfide; listed as Homo sapiens) | −1.48 | 49% | −0.84 | −1.11 | −1.55 | – |
| TGN-S-S-SEQ ID NO: 1652 (D) ([dC][dE][dL][dF][dE][dE][dL][dA][dE][dL][dL][dW][dE]G[dL][dE][dN][dL][dI][dD][dW]G[dN][dS]; not fully specified (residue 1); also: TGN attached via disulfide; listed as Homo sapiens) | −2.03 | 37% | −1.27 | −1.5 | −1.6 | – |
| TGN-S-S-SEQ ID NO: 1653 (D) ([dC]G[dL][dF]G[dE][dI][dA][dE][dL][dI][dW][dE]G[dL][dE][dN][dL][dI][dD][dW]G[dN]G; not fully specified (residue 1); also: TGN attached via disulfide; listed as Homo sapiens) | −2.13 | 63% | – | – | – | In vitro dddCt (vs. baseline SCE dose) (CTNNB1 [1]; Targeted peptide dose 25 nM): −0.76; In vivo mRNA knockdown (CTNNB1 [2]; TGN-L-siRNA-III 0.25 mg/kg IV, peptide 50 mg/kg IV 15 min after siRNA): 69% |
| TGN-S-S-SEQ ID NO: 1712 (L): TGN-S-S-peptide; peptide CFLGALWKALSELLKNLIDWWNG (C(TGN)FLGALWKALSELLKNLIDWWNG; reading uncertain; also: TGN disulfide conjugate at Cys1; listed as Homo sapiens) | – | – | – | – | – | In vitro dddCt (vs. baseline SCE dose) (CTNNB1 [1]; Targeted peptide dose 8 nM): 0.03; In vitro dddCt (vs. baseline SCE dose) (CTNNB1 [1]; Targeted peptide dose 40 nM): 0.07; In vitro dddCt (vs. baseline SCE dose) (CTNNB1 [1]; Targeted peptide dose 200 nM): −0.08; In vitro dddCt (vs. baseline SCE dose) (CTNNB1 [1]; Targeted peptide dose 1000 nM): 0; In vitro dddCt (vs. baseline SCE dose) (CTNNB1 [1]; Targeted peptide dose 5000 nM): −0.2; In vivo mRNA knockdown (CTNNB1 [2]; TGN-L-siRNA-III 0.5 mg/kg IV, peptide 5 mg/kg IV 15 min after siRNA): 34% |
| TGN-S-S-SEQ ID NO: 1713 (L) (C(TGN)GLRHGELEELSHEEGLENLIDWWNG; reading uncertain; also: TGN disulfide conjugate at Cys1; listed as Homo sapiens) | – | 2% | – | – | – | In vitro dddCt (vs. baseline SCE dose) (CTNNB1 [1]; Targeted peptide dose 8 nM): 0.21; In vitro dddCt (vs. baseline SCE dose) (CTNNB1 [1]; Targeted peptide dose 40 nM): 0.21; In vitro dddCt (vs. baseline SCE dose) (CTNNB1 [1]; Targeted peptide dose 200 nM): 0.15; In vitro dddCt (vs. baseline SCE dose) (CTNNB1 [1]; Targeted peptide dose 1000 nM): −0.04; In vitro dddCt (vs. baseline SCE dose) (CTNNB1 [1]; Targeted peptide dose 5000 nM): 0; In vivo mRNA knockdown (CTNNB1 [2]; TGN-L-siRNA-III 0.25 mg/kg IV, peptide 2 mg/kg IV 15 min after siRNA): 0% |
| TGN-S-S-SEQ ID NO: 1740 (L): TGN-S-S-peptide; peptide GLFEAIEGFIENGWEGLAELAEALEALAAGGSC (GLFEAIEGFIENGWEGLAELAEALEALAAGGSC(TGN); reading uncertain; also: TGN linked to Cys via disulfide, TGN not defined; listed as Homo sapiens) | – | – | – | – | – | In vitro dddCt (vs. baseline SCE dose) (CTNNB1 [1]; Targeted peptide dose 8 nM): 0; In vitro dddCt (vs. baseline SCE dose) (CTNNB1 [1]; Targeted peptide dose 40 nM): 0.13; In vitro dddCt (vs. baseline SCE dose) (CTNNB1 [1]; Targeted peptide dose 200 nM): −0.07; In vitro dddCt (vs. baseline SCE dose) (CTNNB1 [1]; Targeted peptide dose 1000 nM): −0.06; In vitro dddCt (vs. baseline SCE dose) (CTNNB1 [1]; Targeted peptide dose 5000 nM): −0.06; In vivo mRNA knockdown (CTNNB1 [2]; [4]): 20% |
| TGN-S-S-SEQ ID NO: 1741(L): TGN-S-S-peptide; peptide GLFGALAEALAEALAEHLAEALAEALEALAAGGSC (GLFGALAEALAEALAEHLAEALAEALEALAAGGSC(TGN); reading uncertain; also: TGN linked to Cys via disulfide, TGN not defined; listed as Homo sapiens) | – | – | – | – | – | In vivo mRNA knockdown (CTNNB1 [2]; [4]): 24% |
| TGN-S-S-SEQ ID NO: 1744 (D) ([dC][dE][dE][dN][dW][dI]G[dL][dF]GGG[dN][dI][dW][dE][dE][dE][dE][dI][dL][dD][dL][dL]; not fully specified (residue 1); also: disulfide to TGN peptide via Cys1; listed as Homo sapiens) | – | – | – | – | – | In vivo mRNA knockdown (CTNNB1 [2]; TGN-L-siRNA-III 0.5 mg/kg IV, peptide 2 mg/kg IV 15 min after siRNA): 28%; In vivo mRNA knockdown (CTNNB1 [2]; TGN-L-siRNA-III 0.5 mg/kg IV, peptide 10 mg/kg IV 15 min after siRNA): 33% |
| siRNA-IV: CTNNB1 siRNA; passenger SEQ ID NO 1807 (clickA, 5Chol), guide SEQ ID NO 1806 (sense CUGUUGGAUUGAUUCGAAAUU; guide TUUCGAAUCAAUCCAACAGUU; click A, 5' cholesterol; vinylphosphonate MOE T; (1)..(1) aminohexyl phosphate inverted abasic cap; (1)..(2) 2′-O-methyl; (3)..(3) 2′-deoxy-2′-fluoro; (4)..(5) 2′-O-methyl; (6)..(8) 2′-deoxy-2′-fluoro; (9)..(10) 2′-O-methyl; (11)..(12) 2′-deoxy-2′-fluoro; (13)..(15) 2′-O-methyl; (16)..(16) 2′-deoxy-2′-fluoro; (17)..(17) 2′ propagyl; (18)..(19) 2′-deoxy-2′-fluoro; (20)..(21) 2′-O-methyl; (20)..(21) phosphorothioate internucleotide linkage; (21)..; (1)..(1) terminal vinyl phosphate; (1)..(1) 2′-methoxyethoxy; (2)..(21) ribonucleotide unmodified or modified as described for this sequence; …) | – | – | – | – | – | In vivo mRNA knockdown (CTNNB1 [2]; targeted siRNA alone 0.5 mg/kg IV, peptide dose 0): 25%; In vivo mRNA knockdown (CTNNB1 [2]; targeted siRNA alone 2 mg/kg IV, peptide dose 0): 25%; In vivo mRNA knockdown (CTNNB1 [2]; targeted siRNA alone 5 mg/kg IV, peptide dose 0): 35% |

Reference: patent US10239957B2, “Peptide containing conjugates for dual molecular delivery of oligonucleotides” (Merck Sharp & Dohme Corp., priority 2013, dated 2019)
